Source: patent publication US9060966B2, “Use of 2,5-dihydroxybenzene derivatives for the treatment of arthritis and pain” (priority 2006, dated 2015)

Columns and labels:
[1] = system: pterygium; experiment: Topical treatment of pterygium in a patient; format: in vivo, human; settings: 2.5% solution, one drop four times per day, two weeks
Source text: FIG. 3. […] The treatment consists of the application of 4 drops of said solution daily, for two weeks.
The solution was applied topically to a patient suffering from unilateral pterygium, as one drop four times per day.

[2] = target: fibroblast growth factor-1 (FGF-1) (Homo sapiens, UniProt P05230); experiment: Co-crystallisation with FGF-1 (crystal diffraction of complexes); format: binding
Source text: (§1) FIG. 24. 2-acetoxy-5-hydroxybenzenesulfonic acid co-crystallized with fibroblast growth factor-1. […] The compound occupies a place that is very close to that described occupied by 2,5-dihydroxybenzenesulfonic acid, the aromatic ring of which forms a cation-σ bond with the N^ε group of lysine 132, which is marked in panel A as reference. […] In panels A and B, the protein surface is colored according to its electrostatic potential (light grey: negative charge; dark grey: positive charge; white: lack of charge).
as §1, with “25. 5-acetoxy-2-hydroxybenzenesulfonic” for “24. 2-acetoxy-5-hydroxybenzenesulfonic”, “cation-π” for “cation-σ”
as §1, with “26. 2,5-diacetoxybenzenesulfonic” for “24. 2-acetoxy-5-hydroxybenzenesulfonic”, “cation-π” for “cation-σ”
Based on the crystal diffraction of the FGF-1:2-acetoxy-5-hydroxybenzene sulfonic acid, FGF-1:5-acetoxy-2-hydroxybenzene sulfonic acid and FGF-1:2,5-diacetoxybenzene sulfonic acid complexes, the structures of the complexes were calculated and represented. FIGS. 24, 25 and 26, which show the surface of the dyed protein according to its electrostatic potential (light grey: negative charge; dark grey: positive charge; white: lack of charge), show the manner in which 2-acetoxy-5-hydroxybenzene sulfonic acid, 5-acetoxy-2-hydroxybenzene sulfonic acid and 2,5-diacetoxybenzene sulfonic acid interact, respectively, with FGF-1.

Sequence of fibroblast growth factor-1 (FGF-1) (P05230 whole entry, species assumed): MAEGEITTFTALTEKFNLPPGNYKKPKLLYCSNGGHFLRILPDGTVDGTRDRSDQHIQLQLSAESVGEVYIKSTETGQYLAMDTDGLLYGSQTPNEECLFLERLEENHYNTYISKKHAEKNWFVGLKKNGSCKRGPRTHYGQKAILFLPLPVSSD

Row | SMILES | pterygium [1] | acetoxyl groups of the compound when bound to the protein ([2]; electron density contoured at 1σ) | binding site on FGF-1 in the crystal complex ([2]; reference: site of 2,5-dihydroxybenzene sulfonic acid, lysine 132)
1 | O=S(=O)(O)c1cc(O)ccc1O [DHBS, 2,5-dihydroxybenzenesulfonic acid] | partial reversal of the pterygium | – | –
2 | CC(=O)Oc1ccc(OC(C)=O)c(S(=O)(=O)[O-])c1.[K+] [DABS, potassium 2,5-diacetoxybenzene sulfonate] | – | conserve the acetoxyl groups | a site that is very close to the one that has been described occupied by 2,5-dihydroxybenzene sulfonic acid
